Experimental data taken from patent publication US9890171B2, “Aldosterone synthase inhibitors” (Boehringer Ingelheim International GmbH, priority 2014, dated 2018).

Biological target: aldosterone synthase (CYP11B2) (Macaca fascicularis, UniProt A0A2K5UPL9)
Test: aldosterone synthase inhibition assay
Assay type: biochemical, cynomolgus monkey
Settings: cynomolgus adrenal gland mitochondria, 2 μM corticosterone, aldosterone quantified by mass spectrometry
Protocol: The aldosterone synthase inhibition assay employs cynomolgus adrenal gland mitochondria as the source of aldosterone synthase (CYP11B2). Mitochondria are prepared from frozen cynomolgus monkey adrenal glands according to Method A described in by J. D. McGarry et al. (Biochem. J., 1983, 214, 21-28), with a final resuspension in the AT buffer described in R. Yamaguchi et al. (Cell Death and Differentiation, 2007, 14, 616-624), frozen as aliquots in liquid nitrogen and stored at −80° C. until use.
Assays are performed in 96-well format in a final volume of 60 μL/well, containing 100 mM potassium phosphate, pH 7.4, 1% (v/v) DMSO, and additionally, 2 μM of corticosterone and […] of mitochondrial protein. Reactions are started by the addition of NADPH to 1 mM and allowed to proceed for 60-90 minutes at 37° C. Reactions are terminated by the addition of […]. One hundred microliters are then transferred to a glass filter plate and centrifuged at 570×g for 5 minutes and the filtrate is collected. Reaction product aldosterone is quantified by mass spectrometry. To determine the assay blank value (0% activity), NADPH is omitted from some reactions.
Dose dependent inhibition is quantified by the inclusion of compound at various concentrations. Maximum activity (100%) is defined by reactions containing NADPH, but without compound. Activities at each concentration are expressed as a percentage of the maximum activity (y-axis) and plotted against concentration of compound (x-axis) and the concentration corresponding to 50% activity (IC50) determined using the XLFit curve-fitting program using a 4-parameter logistic model.

Chain of aldosterone synthase (CYP11B2) (A0A2K5UPL9 1-503): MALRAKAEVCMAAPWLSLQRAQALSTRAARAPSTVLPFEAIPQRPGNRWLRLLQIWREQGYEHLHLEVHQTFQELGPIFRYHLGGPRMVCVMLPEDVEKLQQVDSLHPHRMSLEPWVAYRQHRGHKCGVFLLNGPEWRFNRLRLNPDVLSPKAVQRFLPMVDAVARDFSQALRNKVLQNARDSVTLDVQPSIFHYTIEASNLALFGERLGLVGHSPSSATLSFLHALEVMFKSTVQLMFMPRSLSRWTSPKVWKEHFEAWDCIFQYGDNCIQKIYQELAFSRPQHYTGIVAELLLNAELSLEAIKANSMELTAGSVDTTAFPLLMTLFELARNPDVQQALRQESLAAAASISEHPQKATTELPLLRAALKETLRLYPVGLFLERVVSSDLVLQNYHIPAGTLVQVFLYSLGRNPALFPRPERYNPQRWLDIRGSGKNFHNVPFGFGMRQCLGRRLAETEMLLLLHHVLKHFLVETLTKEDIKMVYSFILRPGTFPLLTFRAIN

| IC50 | Compound |
| --- | --- |
| 0.518 µM | CCC(=O)NC1COCc2c(-c3ccc4c(c3)C(O)CCO4)cncc21 (single isomer, unassigned) [Compound 132, N-[8-(4-Hydroxy-chroman-6-yl)-3,4-dihydro-1H-pyrano[4,3-c]pyridin-4-yl]-propionamide] |
| 0.0649 µM | NC(=O)N1CCCc2cc(-c3cncc4c3COCC4O)cnc21 (stereo not drawn) [Compound 102, 6-(4-Hydroxy-3,4-dihydro-1H-pyrano[4,3-c]pyridin-8-yl)-3,4-dihydro-2H-[1,8]naphthyridine-1-carboxylic acid amide] |
| 1.47 µM | CCS(=O)(=O)NC1COCc2c(-c3ccc4c(c3)C(O)CCO4)cncc21 (single isomer, unassigned) [Compound 133, Ethanesulfonic acid [8-(4-hydroxy-chroman-6-yl)-3,4-dihydro-1H-pyrano[4,3-c]pyridin-4-yl]-amide] |
| 0.0098 µM | N#Cc1ccc(-c2cncc3c2COCC3O)cc1 (single isomer, unassigned) [Compound 6, 4-(4-Hydroxy-3,4-dihydro-1H-pyrano[4,3-c]pyridin-8-yl)-benzonitrile] |
| 0.281 µM | Cn1ncc2ccc(-c3cncc4c3C(C)(O)COC4)cc21 (single isomer, unassigned) [Compound 180, 4-Methyl-5-(1-methyl-1H-indazol-6-yl)-3,4-dihydro-1H-pyrano[3,4-c]pyridin-4-ol] |
| 2.7 µM | Cn1cc(-c2cncc3c2COCC3O)cn1 (single isomer, unassigned) [Compound 32, 8-(1-Methyl-1H-pyrazol-4-yl)-3,4-dihydro-1H-pyrano[4,3-c]pyridin-4-ol] |
| 9.73 µM | O=C1NCCOc2cc(-c3cncc4c3COCC4O)ccc21 (single isomer, unassigned) [Compound 146, 8-(4-Hydroxy-3,4-dihydro-1H-pyrano[4,3-c]pyridin-8-yl)-3,4-dihydro-2H-benzo[f][1,4]oxazepin-5-one] |
| 0.58 µM | O=C1CCCc2ccc(-c3cncc4c3COCC4O)cc21 (single isomer, unassigned) [Compound 115, 7-(4-Hydroxy-3,4-dihydro-1H-pyrano[4,3-c]pyridin-8-yl)-3,4-dihydro-2H-naphthalen-1-one] |
| 1.56 µM | CC1(O)CCOc2ccc(-c3cncc4c3COCC4O)cc21 (single isomer, unassigned) [Compound 138, 8-(4-Hydroxy-4-methyl-chroman-6-yl)-3,4-dihydro-1H-pyrano[4,3-c]pyridin-4-ol] |
| 0.073 µM | Cc1ncc2ccc(-c3cncc4c3COC3(CC3)C4O)cn12 (single isomer, unassigned) [Compound 89, 8-(3-methylimidazo[1,5-a]pyridin-6-yl)spiro[1,4-dihydropyrano[4,3-c]pyridine-3,1′-cyclopropane]-4-ol] |
| 0.0102 µM | Cn1nc(F)c2ccc(-c3cncc4c3COCC4(C)O)cc21 (single isomer, unassigned) [Compound 172, 8-(3-Fluoro-1-methyl-1H-indazol-6-yl)-4-methyl-3,4-dihydro-1H-pyrano[4,3-c]pyridin-4-ol] |
| 0.0443 µM | NC(=O)N1CCCc2cc(-c3cncc4c3COCC4O)cnc21 (single isomer, unassigned) [Compound 163, 6-(4-Hydroxy-3,4-dihydro-1H-pyrano[4,3-c]pyridin-8-yl)-3,4-dihydro-2H-[1,8]naphthyridine-1-carboxylic acid amide] |
| 0.0641 µM | OC1COCc2c(-c3ccc4ncccc4c3)cncc21 (single isomer, unassigned) [Compound 22, 8-Quinolin-6-yl-3,4-dihydro-1H-pyrano[4,3-c]pyridin-4-ol] |
| 0.0173 µM | Cn1ncc2c(F)cc(-c3cncc4c3COCC4N)cc21 (single isomer, unassigned) [Compound 149, 8-(4-Fluoro-1-methyl-1H-indazol-6-yl)-3,4-dihydro-1H-pyrano[4,3-c]pyridin-4-ylamine] |
| 0.219 µM | CCC(=O)NC1COCc2c(-c3ccc4ncn(C)c4c3)cncc21 (single isomer, unassigned) [Compound 57, N-[8-(3-Methyl-3H-benzoimidazol-5-yl)-3,4-dihydro-1H-pyrano[4,3-c]pyridin-4-yl]-propionamide] |
| 0.0263 µM | CC(=O)NC1COCc2c(-c3ccc4oc(=O)ccc4c3)cncc21 (single isomer, unassigned) [Compound 154, N-[8-(2-Oxo-2H-chromen-6-yl)-3,4-dihydro-1H-pyrano[4,3-c]pyridin-4-yl]-acetamide] |
| 0.0097 µM | OC1COCc2c(-c3ccc4ncccc4c3)cncc21 (single isomer, unassigned) [Compound 35, 8-Quinolin-6-yl-3,4-dihydro-1H-pyrano[4,3-c]pyridin-4-ol] |

| IC50 | Compound |
| --- | --- |
| 2.8 µM | CCS(=O)(=O)NC1COCc2c(-c3cc4c(cnn4C)cc3C)cncc21 (single isomer, unassigned) [Compound 78, Ethanesulfonic acid [8-(1,5-dimethyl-1H-indazol-6-yl)-3,4-dihydro-1H-pyrano[4,3-c]pyridin-4-yl]-amide] |
| 0.022 µM | OC1COCc2c(-c3ccc4c(c3)OCCCO4)cncc21 (single isomer, unassigned) [Compound 43, 8-(3,4-Dihydro-2H-benzo[b][1,4]dioxepin-7-yl)-3,4-dihydro-1H-pyrano[4,3-c]pyridin-4-ol] |
| 0.0173 µM | OC1COCc2c(-c3ccc4cc[nH]c4c3)cncc21 (single isomer, unassigned) [Compound 34, 8-(1H-Indol-6-yl)-3,4-dihydro-1H-pyrano[4,3-c]pyridin-4-ol] |
| 1.87 µM | CC1(O)CCOc2ccc(-c3cncc4c3COCC4O)cc21 (single isomer, unassigned) [Compound 137, 8-(4-Hydroxy-4-methyl-chroman-6-yl)-3,4-dihydro-1H-pyrano[4,3-c]pyridin-4-ol] |
| 0.081 µM | NC(=O)c1cccc2cc(-c3cncc4c3COCC4O)cnc12 (single isomer, unassigned) [Compound 104, 3-(4-Hydroxy-3,4-dihydro-1H-pyrano[4,3-c]pyridin-8-yl)-quinoline-8-carboxylic acid amide] |
| 0.0361 µM | CCS(=O)(=O)NC1COCc2c(-c3ccc4nnn(C)c4c3)cncc21 (single isomer, unassigned) [Compound 65, Ethanesulfonic acid [8-(3-methyl-3H-benzotriazol-5-yl)-3,4-dihydro-1H-pyrano[4,3-c]pyridin-4-yl]-amide] |
| 0.0289 µM | O=C1CCc2cc(-c3cncc4c3COCC4O)ccc2N1 (single isomer, unassigned) [Compound 1, 6-(4-Hydroxy-3,4-dihydro-1H-pyrano[4,3-c]pyridin-8-yl)-3,4-dihydro-1H-quinolin-2-one] |
| 0.0174 µM | CCC(=O)NC1COCc2c(-c3cc(F)c4cnn(C)c4c3)cncc21 (single isomer, unassigned) [Compound 150, N-[8-(4-Fluoro-1-methyl-1H-indazol-6-yl)-3,4-dihydro-1H-pyrano[4,3-c]pyridin-4-yl]-propionamide] |
| 0.224 µM | Cn1ncc2ccc(-c3cncc4c3C(O)COC4)cc21 (single isomer, unassigned) [Compound 165, 5-(1-Methyl-1H-indazol-6-yl)-3,4-dihydro-1H-pyrano[3,4-c]pyridin-4-ol] |
| 0.0353 µM | NC(=O)N1CCCc2cc(-c3cncc4c3C(O)COC4)cnc21 (single isomer, unassigned) [Compound 161, 6-(4-Hydroxy-3,4-dihydro-1H-pyrano[3,4-c]pyridin-5-yl)-3,4-dihydro-2H-[1,8]naphthyridine-1-carboxylic acid amide] |
| 1 µM | CCS(=O)(=O)NC1COCc2c(-c3ccc4c(C)n[nH]c4c3)cncc21 (single isomer, unassigned) [Compound 66, Ethanesulfonic acid [8-(3-methyl-1H-indazol-6-yl)-3,4-dihydro-1H-pyrano[4,3-c]pyridin-4-yl]-amide] |
| 0.139 µM | CCC(=O)NC1COCc2c(-c3ccc4c(C)n[nH]c4c3)cncc21 (single isomer, unassigned) [Compound 62, N-[8-(3-Methyl-1H-indazol-6-yl)-3,4-dihydro-1H-pyrano[4,3-c]pyridin-4-yl]-propionamide] |
| 0.0486 µM | Cn1ncc2ccc(-c3cncc4c3COCC4O)cc21 (single isomer, unassigned) [Compound 29, 8-(1-Methyl-1H-indazol-6-yl)-3,4-dihydro-1H-pyrano[4,3-c]pyridin-4-ol] |
| 0.0242 µM | CN1C(=O)Cc2cc(-c3cncc4c3COCC4O)ccc21 (single isomer, unassigned) [Compound 51, 5-(4-Hydroxy-3,4-dihydro-1H-pyrano[4,3-c]pyridin-8-yl)-1-methyl-1,3-dihydro-indol-2-one] |
| 0.0264 µM | Cn1ncc2ccc(-c3cncc4c3COCC4NC(=O)C3CC3)cc21 (single isomer, unassigned) [Compound 75, Cyclopropanecarboxylic acid [8-(1-methyl-1H-indazol-6-yl)-3,4-dihydro-1H-pyrano[4,3-c]pyridin-4-yl]-amide] |
| 0.081 µM | Cc1n[nH]c2cc(-c3cncc4c3COCC4O)ccc12 (single isomer, unassigned) [Compound 13, 8-(3-Methyl-1H-indazol-6-yl)-3,4-dihydro-1H-pyrano[4,3-c]pyridin-4-ol] |
